Here are results for one compound from US5300668A, “Certain esters of 1-(4-X-methylphenyl)cyclopent-3-ene-1-carboxylic acid, wherein X is a trialkylsilyloxy, bromo or hydroxy group, as intermediates” (Pfizer Inc., priority 1993, dated 1994).

Where only a bound is given, the exact number is not on record here.

In one assay the test system is mean arterial pressure. Description: in vivo blood pressure lowering in low sodium diet, furosemide-treated rats. To be noted: oral or parenteral dosing; sodium-depleted Sprague-Dawley rats. The method, then:
The ability of the compounds of the invention to lower blood pressure in mammals was determined by the following in vivo protocol. Sprague-Dawley rats are placed on a low sodium diet (Purina Labs, 0.07% sodium) for 15 days. On days 11 and 13 of this period, the rats are given furosemide (Lasix, 8 mg/kg, i.m.). On day 13, the animals are anesthetized with a pentobarbital-chloral hydrate mixture (30 mg/kg pentobarbital sodium and 10 mg/kg chloral hydrate, i.p.) and the carotid artery and jugular vein are cannulated using PE50 tubing (Clay-Adams). After a 24 hour recovery period, the animals are injected on day 14 with Lasix (10 mg/kg, i.m.) and are placed in plexiglass chambers for blood pressure recording. […] When possible, blood pressure is also checked after 24 hours. According to this protocol, the compound of the invention is effective in lowering mean arterial pressure at oral dosages from about 0.1 mg/kg to about 30 mg/kg, and at parenteral dosages from about 0.01 mg/kg to about 10 mg/kg, with a duration of action of greater than 24 hours.

Another assay concerns the target T1, rat liver AII receptors (Rattus norvegicus, UniProt P25095).
T1 construct: from tissue; host or cells: liver membranes (100,000 g pellet) of male Sprague-Dawley rats
T1 sequence (P25095 1-359): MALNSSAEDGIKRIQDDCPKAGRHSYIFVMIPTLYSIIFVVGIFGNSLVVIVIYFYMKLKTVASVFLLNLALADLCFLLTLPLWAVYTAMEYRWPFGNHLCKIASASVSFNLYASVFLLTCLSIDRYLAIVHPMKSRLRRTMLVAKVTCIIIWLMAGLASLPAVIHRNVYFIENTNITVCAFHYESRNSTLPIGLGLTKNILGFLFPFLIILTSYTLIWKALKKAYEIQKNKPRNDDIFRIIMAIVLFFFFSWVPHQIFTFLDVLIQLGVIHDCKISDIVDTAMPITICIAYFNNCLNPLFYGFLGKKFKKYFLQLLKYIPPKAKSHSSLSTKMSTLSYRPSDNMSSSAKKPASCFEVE
Kind of assay: in vitro AII rat liver binding assay (displacement of 125I SARILE AII). The settings on record: displacement of 125I SARILE AII from rat liver membranes; assay run with or without BSA; read-out: IC50 (concentration of compound which inhibits binding by 50%). On the procedure:
The compound of the present invention is readily adapted to clinical use as a modulator of AII action at the AII receptor. The ability of the compound to modulate AII action was determined by an in vitro AII rat liver binding assay which measures its ability to displace ^125 I sarcosine-1, isoleucine-8, angiotensin II (SARILE AII, obtained from New England Nuclear) from rat liver AII receptors. For this assay, the following materials are used.
Homogenation buffer (10 mM Tris, 0.2M sucrose, 1.0 mM EDTA), prepared using 1.21 g Tris base, […] sucrose and 336 mg EDTA in 1000 ml water, adjusted to pH 7.4 using HCl.
Buffer A (50 mM Tris, 5 mM MgCl2), prepared using 6.05 g Tris base and 1.02 g MgCl2.6H2 O in 1000 ml water.
Assay buffer, prepared using 200 ml Buffer A and 0.5 g BSA. […]
The compound being tested is made up to an initial concentration of 2 mM in 100% DMSO. […] The filters are cut, placed in test tubes and counted on a Gamma Counter. The mean for all triplicate points are calculated and total specific binding is calculated by subtracting nonspecific counts from total counts. Binding in the presence of compound (COUNTS) is calculated by subtracting nonspecific counts from counts in the presence of compound. Percent binding of SARILE All in the presence of compound is calculated by dividing COUNTS by total specific counts. […]

Take `CCc1nc2c(C)cc(C)nc2n1Cc1ccc(C2(C(=O)O)CC=CC2)cc1` [Example 1, 1-[4'-(2"-ethyl-5",7"-dimethylimidazo[4,5-b]pyridin-3-yl)methylphenyl]cyclopent-3-ene-1-carboxylic acid]: the “duration of action (lowering of mean arterial pressure)” value in the assay on mean arterial pressure is on record as “greater than 24 hours”. For the same compound, the IC50 on rat liver AII receptors is below 100 nM.
